Target: Peroxisomal multifunctional enzyme type 2 (Homo sapiens) (UniProt P51659)
Experiment: ligand-induced stabilization of human HSD17B4 – biophysical, DSF, SYPRO orange, recombinant protein (AID 509)
Conditions: recombinant HSD17B4 DSF thermal shift, protein 2 µM, buffer 10 mM HEPES, pH 7.5, NaCl 150 mM, stronger effect = higher value

Peroxisomal multifunctional enzyme type 2 (Homo sapiens), sequence (P51659 whole entry, looked up): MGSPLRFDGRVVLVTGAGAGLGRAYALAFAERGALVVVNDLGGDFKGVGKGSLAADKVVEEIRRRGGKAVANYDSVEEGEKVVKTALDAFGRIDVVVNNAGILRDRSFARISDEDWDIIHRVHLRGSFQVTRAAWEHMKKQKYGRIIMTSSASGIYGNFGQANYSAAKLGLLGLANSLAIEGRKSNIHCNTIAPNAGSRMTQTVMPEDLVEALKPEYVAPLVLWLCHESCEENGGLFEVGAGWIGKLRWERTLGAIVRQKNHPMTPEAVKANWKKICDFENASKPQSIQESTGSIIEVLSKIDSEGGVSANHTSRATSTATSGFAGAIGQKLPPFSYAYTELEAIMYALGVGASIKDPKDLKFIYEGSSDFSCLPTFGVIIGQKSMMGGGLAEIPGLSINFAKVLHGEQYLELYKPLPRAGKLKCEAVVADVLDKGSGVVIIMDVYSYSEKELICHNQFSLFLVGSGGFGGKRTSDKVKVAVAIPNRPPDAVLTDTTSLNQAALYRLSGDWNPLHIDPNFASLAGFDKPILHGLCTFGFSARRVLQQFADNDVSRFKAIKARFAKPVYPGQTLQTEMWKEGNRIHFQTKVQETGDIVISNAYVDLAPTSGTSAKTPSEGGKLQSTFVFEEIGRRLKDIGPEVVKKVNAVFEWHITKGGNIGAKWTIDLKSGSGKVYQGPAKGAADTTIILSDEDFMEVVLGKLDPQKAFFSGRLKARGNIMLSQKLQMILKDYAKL

Row | Tm shift (at 10 µM) [Celsius] | Compound | Tm shift (at 100 µM) [Celsius]
1 | – | O=C1C2(Cl)C3(Cl)C4(Cl)C(Cl)(Cl)C5(Cl)C3(Cl)C1(Cl)C5(Cl)C24Cl (configuration not stated) | 3
2 | 2.1 | Oc1cc(O)c2cc(O)c(-c3ccc(O)c(O)c3)[o+]c2c1 | –
